From the supplement of paper PMC10307832

Experiments:
Experiment in all cases: relative viability (nuclei count vs DMSO), 5 days (fraction); higher = more cells survive
NCI-H647 = system: NCI-H647
Procedure, shortened: (§1)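 A single step with final 0.05% Triton X-100, 1% formaldehyde and 1 ug/ml Hoechst fixed the cells and stained nuclei 5 days after treatment. Lung cancer cell lines in 1536-well plates had been treated by pin tool the day after seeding with one drug alone or a fixed anchor-drug dose plus five library-drug doses (not always all listed) in √10 steps, and nuclei were counted on 4× images. Relative viability is the ratio of nuclei in treated wells to nuclei in vehicle wells, taken as the median of duplicate plates.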

HOP-62 = system: HOP-62
Procedure, shortened: as §1

COR-L23 = system: COR-L23
Procedure, shortened: as §1

LC-2-ad = system: LC-2-ad
Procedure, shortened: as §1

NCI-H1395 = system: NCI-H1395
Procedure, shortened: as §1

NCI-H1666 = system: NCI-H1666
Procedure, shortened: as §1

NCI-H2170 = system: NCI-H2170
Procedure, shortened: as §1

CAL-12T = system: CAL-12T
Procedure, shortened: as §1

LCLC-103H = system: LCLC-103H
Procedure, shortened: as §1

NCI-H2228 = system: NCI-H2228
Procedure, shortened: as §1

NCI-H1651 = system: NCI-H1651
Procedure, shortened: as §1

ABC-1 = system: ABC-1
Procedure, shortened: as §1

NCI-H2085 = system: NCI-H2085
Procedure, shortened: as §1

NCI-H661 = system: NCI-H661
Procedure, shortened: as §1

NCI-H1993 = system: NCI-H1993
Procedure, shortened: as §1

NCI-H23 = system: NCI-H23
Procedure, shortened: as §1

NCI-H520 = system: NCI-H520
Procedure, shortened: as §1

201T = system: 201T
Procedure, shortened: as §1

NCI-H2347 = system: NCI-H2347
Procedure, shortened: as §1

NCI-H838 = system: NCI-H838
Procedure, shortened: as §1

NCI-H1355 = system: NCI-H1355
Procedure, shortened: as §1

HCC-44 = system: HCC-44
Procedure, shortened: as §1

NCI-H322M = system: NCI-H322M
Procedure, shortened: as §1

Structure (SMILES): O=C(O)CCCCC(CCSCc1ccccc1)SCc1ccccc1 (stereo not given) [CPI-613] + O=C(CCCCCCC(=O)Nc1ccccc1)NO [Vorinostat] (partner 1 µM)
- relative viability (NCI-H647; first compound 5 µM): 0.598
- relative viability (NCI-H647; first compound 15.81 µM): 0.568
- relative viability (NCI-H647; first compound 50 µM): 0.303
- relative viability (NCI-H647; first compound 158.11 µM): 0.0385
- relative viability (NCI-H647; first compound 500 µM): 0.014
- relative viability (HOP-62; first compound 5 µM): 0.531
- relative viability (HOP-62; first compound 15.81 µM): 0.49
- relative viability (HOP-62; first compound 50 µM): 0.574
- relative viability (HOP-62; first compound 158.11 µM): 0.285
- relative viability (HOP-62; first compound 500 µM): 0.0726
- relative viability (COR-L23; first compound 5 µM): 0.42
- relative viability (COR-L23; first compound 15.81 µM): 0.387
- relative viability (COR-L23; first compound 50 µM): 0.371
- relative viability (COR-L23; first compound 158.11 µM): 0.125
- relative viability (COR-L23; first compound 500 µM): 0.0123
- relative viability (LC-2-ad; first compound 5 µM): 0.624
- relative viability (LC-2-ad; first compound 15.81 µM): 0.631
- relative viability (LC-2-ad; first compound 50 µM): 0.594
- relative viability (LC-2-ad; first compound 158.11 µM): 0.0484
- relative viability (LC-2-ad; first compound 500 µM): 0.0025
- relative viability (NCI-H1395; first compound 5 µM): 0.792
- relative viability (NCI-H1395; first compound 15.81 µM): 0.613
- relative viability (NCI-H1395; first compound 50 µM): 0.871
- relative viability (NCI-H1395; first compound 158.11 µM): 0.653
- relative viability (NCI-H1395; first compound 500 µM): 0.745
- relative viability (NCI-H1666; first compound 5 µM): 1.07
- relative viability (NCI-H1666; first compound 15.81 µM): 1.01
- relative viability (NCI-H1666; first compound 50 µM): 1.01
- relative viability (NCI-H1666; first compound 158.11 µM): 0.542
- relative viability (NCI-H1666; first compound 500 µM): 0.417
- relative viability (NCI-H2170; first compound 5 µM): 0.723
- relative viability (NCI-H2170; first compound 15.81 µM): 0.783
- relative viability (NCI-H2170; first compound 50 µM): 0.774
- relative viability (NCI-H2170; first compound 158.11 µM): 0.541
- relative viability (NCI-H2170; first compound 500 µM): 0.31
- relative viability (CAL-12T; first compound 5 µM): 0.674
- relative viability (CAL-12T; first compound 15.81 µM): 0.545
- relative viability (CAL-12T; first compound 50 µM): 0.708
- relative viability (CAL-12T; first compound 158.11 µM): 0.0538
- relative viability (CAL-12T; first compound 500 µM): 0.039
- relative viability (LCLC-103H; first compound 5 µM): 0.731
- relative viability (LCLC-103H; first compound 15.81 µM): 0.662
- relative viability (LCLC-103H; first compound 50 µM): 0.771
- relative viability (LCLC-103H; first compound 158.11 µM): 0.683
- relative viability (LCLC-103H; first compound 500 µM): 0.207
- relative viability (NCI-H2228; first compound 5 µM): 0.776
- relative viability (NCI-H2228; first compound 15.81 µM): 0.402
- relative viability (NCI-H2228; first compound 50 µM): 0.559
- relative viability (NCI-H2228; first compound 158.11 µM): 0.229
- relative viability (NCI-H2228; first compound 500 µM): 0.0377
- relative viability (NCI-H1651; first compound 5 µM): 0.583
- relative viability (NCI-H1651; first compound 15.81 µM): 0.528
- relative viability (NCI-H1651; first compound 50 µM): 0.528
- relative viability (NCI-H1651; first compound 158.11 µM): 0.438
- relative viability (NCI-H1651; first compound 500 µM): 0.542
- relative viability (ABC-1; first compound 5 µM): 1.21
- relative viability (ABC-1; first compound 15.81 µM): 0.811
- relative viability (ABC-1; first compound 50 µM): 0.995
- relative viability (ABC-1; first compound 158.11 µM): 0.701
- relative viability (ABC-1; first compound 500 µM): 0.318
- relative viability (NCI-H2085; first compound 5 µM): 0.791
- relative viability (NCI-H2085; first compound 15.81 µM): 0.709
- relative viability (NCI-H2085; first compound 50 µM): 0.657
- relative viability (NCI-H2085; first compound 158.11 µM): 0.457
- relative viability (NCI-H2085; first compound 500 µM): 0.216
- relative viability (NCI-H661; first compound 5 µM): 0.702
- relative viability (NCI-H661; first compound 15.81 µM): 0.702
- relative viability (NCI-H661; first compound 50 µM): 0.802
- relative viability (NCI-H661; first compound 158.11 µM): 0.423
- relative viability (NCI-H661; first compound 500 µM): 0.147
- relative viability (NCI-H1993; first compound 5 µM): 0.569
- relative viability (NCI-H1993; first compound 15.81 µM): 0.495
- relative viability (NCI-H1993; first compound 50 µM): 0.61
- relative viability (NCI-H1993; first compound 158.11 µM): 0.404
- relative viability (NCI-H1993; first compound 500 µM): 0.227
- relative viability (NCI-H23; first compound 5 µM): 0.612
- relative viability (NCI-H23; first compound 15.81 µM): 0.586
- relative viability (NCI-H23; first compound 50 µM): 0.591
- relative viability (NCI-H23; first compound 158.11 µM): 0.168
- relative viability (NCI-H23; first compound 500 µM): 0.0015
- relative viability (NCI-H520; first compound 5 µM): 0.831
- relative viability (NCI-H520; first compound 15.81 µM): 0.693
- relative viability (NCI-H520; first compound 50 µM): 0.657
- relative viability (NCI-H520; first compound 158.11 µM): 0.325
- relative viability (NCI-H520; first compound 500 µM): 0.11
- relative viability (201T; first compound 5 µM): 0.961
- relative viability (201T; first compound 15.81 µM): 0.865
- relative viability (201T; first compound 50 µM): 0.958
- relative viability (201T; first compound 158.11 µM): 0.328
- relative viability (201T; first compound 500 µM): 0.368
- relative viability (NCI-H2347; first compound 5 µM): 0.513
- relative viability (NCI-H2347; first compound 15.81 µM): 0.494
- relative viability (NCI-H2347; first compound 50 µM): 0.596
- relative viability (NCI-H2347; first compound 158.11 µM): 0.387
- relative viability (NCI-H2347; first compound 500 µM): 0.235
- relative viability (NCI-H838; first compound 5 µM): 0.675
- relative viability (NCI-H838; first compound 15.81 µM): 0.625
- relative viability (NCI-H838; first compound 50 µM): 0.797
- relative viability (NCI-H838; first compound 158.11 µM): 0.3
- relative viability (NCI-H838; first compound 500 µM): 0.107
- relative viability (NCI-H1355; first compound 5 µM): 0.568
- relative viability (NCI-H1355; first compound 15.81 µM): 0.547
- relative viability (NCI-H1355; first compound 50 µM): 0.537
- relative viability (NCI-H1355; first compound 158.11 µM): 0.452
- relative viability (NCI-H1355; first compound 500 µM): 0.0985
- relative viability (HCC-44; first compound 5 µM): 1.01
- relative viability (HCC-44; first compound 15.81 µM): 1.11
- relative viability (HCC-44; first compound 50 µM): 1.08
- relative viability (HCC-44; first compound 158.11 µM): 0.579
- relative viability (HCC-44; first compound 500 µM): 0.265
- relative viability (NCI-H322M; first compound 5 µM): 0.809
- relative viability (NCI-H322M; first compound 15.81 µM): 0.722
- relative viability (NCI-H322M; first compound 50 µM): 0.777
- relative viability (NCI-H322M; first compound 158.11 µM): 0.703
- relative viability (NCI-H322M; first compound 500 µM): 0.161
